Measurements published in US20180117082A1, “ANTIFUNGAL COMPOSITION/TREATMENT” (THE UNIVERSITY OF NOTTINGHAM, priority 2015, published 2018).

Experiments:
[1] = tested on: Zygosaccharomyces bailii; assay: Growth inhibition assay on solid medium, spotted serial dilutions; format: cell-based; conditions: same concentrations as in the combinations, each agent alone (FIG. 2A)
From the text: Images were captured after 2 d (YEPD) or 3 d (YNB) growth at 30 C. For growth-inhibition assays on solid medium with R. solani, circular sections of ˜0.5 cm diameter were excised from cultures on PDA and transferred to the centre of fresh plates. Images were captured after 3 d growth at 28 C and the total mycelial area determined using ImageJ and GIMP2 software. Where specified, chemical supplements were included in the solid media.

[2] = tested on: R. solani; assay: Growth inhibition assay in PDB medium (OD600); conditions: same concentrations as in the combinations (FIG. 6, FIG. 7)
Description: (§1) Candida spp. or S. cerevisiae were inoculated from YEPD plates to YEPD broth (composition as above, minus agar) and cultured overnight at 30° C., 120 rev min^−1. Overnight cultures were diluted to OD600˜0.5 and cultured for a further 4 h in fresh YEPD before dilution of these experimental cultures to OD600˜0.01 or ˜0.1 in the same medium. Aliquots (300 μl) of the diluted culture plus any chemical supplements (see above), as specified, were transferred to 48-well plates (Greiner Bio-One). OD600 was monitored continuously in a BioTek Powerwave-XS microplate spectrophotometer, with shaking at 30 C. […] Spores of R. solani or Z. tritici were inoculated from PDA plates to potato dextrose broth (PDB; Fluka) (20,000 spores ml^−1). Aliquots (150 μl) of the diluted culture plus any chemical supplements, as specified, were transferred to 96-well plates (Greiner Bio-one) and cultured over 8 d at 24° C., 120 rev min-1. OD600 was monitored every day in a BioTek EL800 microplate spectrophotometer.

[3] = tested on: Rhizoctonia solani; assay: Growth inhibition assay on solid medium (PDA agar), mycelial outgrowth; format: cell-based; conditions: 300 μg ml^−1 paromomycin or 15 mM molybdate alone (FIG. 2B)
Description: For qualitative growth-inhibition assays with yeasts on solid medium, experimental cultures prepared as described above were adjusted to OD600˜2.0, 0.2, 0.02, 0.002, 0.0002 and the dilution series spotted (4 μl) on to either YEPD agar (above) or yeast nitrogen base (YNB) agar: 0.69% (w/v) yeast nitrogen base without amino acids (Formedium; Norfolk, UK) supplemented with 2% (w/v) D-glucose, 0.06 mg ml^−1 leucine, 0.02 mg ml^−1 histidine, 0.02 mg ml^−1 uracil and 2% (w/v) bacteriological agar (Sigma-Aldrich). Images were captured after 2 d (YEPD) or 3 d (YNB) growth at 30 C. For growth-inhibition assays on solid medium with R. solani, circular sections of ˜0.5 cm diameter were excised from cultures on PDA and transferred to the centre of fresh plates. Images were captured after 3 d growth at 28 C and the total mycelial area determined using ImageJ and GIMP2 software. Where specified, chemical supplements were included in the solid media.

[4] = tested on: Candida albicans; assay: Growth inhibition assay in YEPD broth (OD600); format: cell-based; conditions: 25 μM chromate, 200 μg ml^−1 paromomycin or 10 μg ml^−1 hygromycin, each alone (FIG. 1A)
Description: as §1

SMILES | effect on growth, agent alone [1] | inhibitory effect, agent individually [2] | growth-inhibitory effect, agent alone [3] | inhibitory effect on growth, agent alone [4]
O=S(=O)(O)c1cc(N=C=S)ccc1C=Cc1ccc(N=C=S)cc1S(=O)(=O)O [DIDS, 4,4′-diisothio-cyanotostilbene-2,2′-disulphonate] | neither agent alone had a significant effect on growth |  |  | 
[Cu] [copper] |  | none of these agents had an inhibitory effect individually |  | 
[O]=[Mo](=[O])([O-])[O-] [molybdate] | neither agent alone had a significant effect on growth |  | neither agent alone had a marked growth-inhibitory effect | 
CCC[C@H](N)C(=O)O [norvaline] |  | none of these agents had an inhibitory effect individually |  | 
NC[C@@H]1O[C@H](O[C@H]2[C@@H](O)[C@H](O[C@@H]3[C@@H](O)[C@H](N)C[C@H](N)[C@H]3O[C@H]3O[C@H](CO)[C@@H](O)[C@H](O)[C@H]3N)O[C@@H]2CO)[C@H](N)[C@@H](O)[C@@H]1O [paromomycin] | neither agent alone had a significant effect on growth |  | neither agent alone had a marked growth-inhibitory effect | no discernible inhibitory effect
O=[Se](=O)(O)O [selenate] |  | none of these agents had an inhibitory effect individually |  | 
CN(C)C(=S)SSC(=S)N(C)C [thiram] |  | none of these agents had an inhibitory effect individually |  | 
